Assay: Antagonist activity against human D3R expressed in CHO cells assessed as inhibition of quinpirole-induced mitogenesis after 16 hrs by [3H]thymidine uptake assay

| IC50 | SMILES |
| --- | --- |
| 208 nM | CC(C)(C)c1nc(N2CCN(CCCCNC(=O)c3nc4ccccc4[nH]3)CC2)cc(C(F)(F)F)n1 |
| 940 nM | O=C(NCCCCN1CCN(c2ncnc3ccccc23)CC1)c1cn2ccccc2n1 |
| 7.2 nM | O=C(NCCCCN1CCN(c2cccc(Cl)c2Cl)CC1)c1cn2ccccc2n1 |
| 3 nM | COc1ccccc1N1CCN(CCCCNC(=O)c2cn3ccccc3n2)CC1 |
